{"source": "patent US7115253B1", "about": "“Process for stabilizing antioxidant compounds, and aqueous compositions” (Industria E Comercio De Cosmeticos Natura Ltda., priority 1999, dated 2006)", "assay": "degradation kinetics of 10% LAA solution under ultraviolet radiation", "type": "physicochemical", "protocol": "Comparative tests carried out by the inventors confirm the important paper of the reducing agent in the stabilization of antioxidants as per information obtained by Wrinkler B. S. in his work cited herein. A first test was carried out in order to determine the degradation kinetics of a 10% LAA solution in water-containing medium (m/v) under ultraviolet radiation, using a ultraviolet spectrophotometer, for 60 minutes.\nA stoichiometric amount of the reducing agent of the oxidation reaction, that is, Glutathion, was added to the previous post-irradiated solution. The resultant solution was irradiated with ultraviolet radiation for further 60 minutes. By analyzing the remaining LAA, it could be noticed that 9.50% (m/v) thereof was still present. Therefore, the degradation of the LAA is dramatically minimized after the reducing agent is added.\nIn a third test, a 10% LAA solution was prepared in a water-containing medium (m/v) with a stoichiometric amount of the reducing agent Glutathion. […] However, the use of said compound in stoichiometric amounts still presents the already mentioned disadvantages.", "data": [{"compound": "O=C1O[C@H]([C@@H](O)CO)C(O)=C1O", "note": "[LAA, levogyrous ascorbic acid]", "values": [{"measurement": "remaining concentration of molecular LAA", "setting": "10% LAA solution in water-containing medium, ultraviolet radiation 60 minutes, no reducing agent", "result": "about 9.58 % (m/v)"}, {"measurement": "remaining LAA", "setting": "10% LAA solution with stoichiometric amount of Glutathion, ultraviolet radiation 60 minutes", "result": "9.98 % (m/v)"}, {"measurement": "remaining LAA", "setting": "stoichiometric Glutathion added to the post-irradiated solution, ultraviolet radiation for further 60 minutes", "result": "9.50 % (m/v)"}]}]}
